Laboratory results as given in ChEMBL document CHEMBL3853284, “Bioactive Dihydro-β-agarofuran Sesquiterpenoids from the Australian Rainforest Plant Maytenus bilocularis” (J Nat Prod, 2016).

How the values were obtained:
[1] = Cytotoxicity against human LNCAP cells assessed as cell viability inhibition at 10 uM after 72 hrs by Alamar blue assay; format: functional
[2] = Potentiation of vinblastin-induced cytotoxicity against human CEM cells at 5 uM after 72 hrs by Alamar blue assay relative to control; format: functional, CCRF-CEM
CCRF-CEM VCR/R = assay: Inhibition of P-gp in human CCRF-CEM VCR/R cells assessed as potentiation of vinblastin-induced cytotoxicity at 5 uM after 72 hrs by Alamar blue assay relative to control; format: cell-based
[3] = molecular target: T1, Large neutral amino acids transporter small subunit 3 (Homo sapiens, UniProt O75387); assay: Inhibition of LAT3 in human LNCAP cells assessed as inhibition of [3H]L-leucine uptake after 15 mins by liquid scintillation counting method; format: cell-based
T1 sequence (O75387 whole entry): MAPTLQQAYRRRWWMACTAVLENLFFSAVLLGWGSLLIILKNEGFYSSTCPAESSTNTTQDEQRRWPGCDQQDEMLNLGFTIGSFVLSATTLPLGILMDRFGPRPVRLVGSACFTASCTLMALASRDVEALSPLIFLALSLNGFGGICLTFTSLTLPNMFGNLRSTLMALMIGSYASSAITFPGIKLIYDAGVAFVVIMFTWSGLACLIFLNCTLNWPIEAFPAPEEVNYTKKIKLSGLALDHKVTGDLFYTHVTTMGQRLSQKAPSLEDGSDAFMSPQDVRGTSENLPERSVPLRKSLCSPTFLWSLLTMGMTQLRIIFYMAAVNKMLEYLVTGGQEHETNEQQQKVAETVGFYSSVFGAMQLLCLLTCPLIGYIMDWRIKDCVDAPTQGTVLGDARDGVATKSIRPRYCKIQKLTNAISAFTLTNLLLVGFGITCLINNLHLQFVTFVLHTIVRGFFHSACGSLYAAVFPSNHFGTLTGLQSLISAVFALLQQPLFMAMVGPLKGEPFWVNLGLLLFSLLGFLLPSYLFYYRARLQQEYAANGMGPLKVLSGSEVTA

[4] = molecular target: T2, Large neutral amino acids transporter small subunit 3 (Homo sapiens) (UniProt O75387); assay: Inhibition of LAT3 in human LNCAP cells assessed as inhibition of [3H]L-leucine uptake at 10 uM after 15 mins by liquid scintillation counting method relative to control; format: cell-based
T2 sequence (whole entry): T1 sequence (O75387 whole entry)

[5] = molecular target: T2, Large neutral amino acids transporter small subunit 3 (Homo sapiens); assay: Inhibition of LAT3 in human LNCAP cells assessed as inhibition of [3H]L-leucine uptake at 10 mM after 15 mins by liquid scintillation counting method relative to control; format: cell-based

| Compound | inhibition at 10 µM [1] [%] | fold change (FC) [2] | fold change (FC) (CCRF-CEM VCR/R) | further results |
| --- | --- | --- | --- | --- |
| CC(=O)OC[C@@]12[C@@H](OC(C)=O)CC[C@@H](C)[C@]13OC(C)(C)[C@H]([C@@H](OC(C)=O)[C@H]2OC(=O)c1ccccc1)[C@H]3O | > 30 | – | – | – |
| CC(=O)O[C@H]1CC[C@@H](C)[C@]23OC(C)(C)[C@H]([C@@H](O)[C@@H](OC(=O)c4ccccc4)[C@]12C)[C@H]3OC(C)=O | > 30 | – | – | – |
| CC(=O)OC[C@@]12[C@@H](OC(C)=O)CC[C@@H](C)[C@]13OC(C)(C)[C@H]([C@@H](OC(=O)C(C)(C)C)[C@H]2OC(=O)c1ccccc1)[C@H]3OC(C)=O | 25.6 | 1.5 | 124 | – |
| CC(=O)OC[C@@]12[C@@H](OC(C)=O)CC[C@@H](C)[C@]13OC(C)(C)[C@H]([C@@H](OC(C)=O)[C@H]2OC(=O)c1ccccc1)[C@H]3OC(C)=O | > 30 | – | – | – |
| COCC(=O)O[C@@H]1[C@@H]2[C@@H](OC(C)=O)[C@]3(OC2(C)C)[C@H](C)CC[C@H](OC(C)=O)[C@@]3(COC(C)=O)[C@@H]1OC(=O)c1ccccc1 | > 30 | – | – | – |
| CC(=O)OC[C@@]12[C@@H](OC(C)=O)CC[C@@H](C)[C@]13OC(C)(C)[C@H](C[C@@H]2OC(=O)c1ccccc1)[C@H]3OC(C)=O | > 30 | – | – | – |
| CC(=O)OC[C@@]12[C@@H](OC(C)=O)CC[C@@H](C)[C@]13OC(C)(C)[C@H]([C@@H](O)[C@H]2OC(=O)c1ccccc1)[C@H]3OC(C)=O | > 30 | 1.7 | 36.3 | IC50 [3]: 124 µM |
| CC(=O)O[C@@H]1[C@@H]2[C@@H](OC(C)=O)[C@]3(OC2(C)C)[C@H](C)CC[C@H](OC(C)=O)[C@@]3(C)[C@@H]1OC(=O)c1ccccc1 | 14.6 | 2 | 61 | IC50 [3]: 15.5 µM |
| COc1ccc(CCN(C)CCCC(C#N)(c2ccc(OC)c(OC)c2)C(C)C)cc1OC (stereo not given) [VERAPAMIL] | – | 2.8 | 64.5 | inhibition [4]: 82.7% |
| CC(=O)OC[C@@]12[C@@H](OC(C)=O)CC[C@@H](C)[C@]13OC(C)(C)[C@H]([C@@H](O)[C@@H]2OC(=O)c1ccccc1)[C@H]3OC(C)=O | > 30 | – | – | – |
| CC(=O)OC[C@@]12[C@@H](OC(C)=O)CC[C@@H](C)[C@]13OC(C)(C)[C@H]([C@@H](OC(=O)c1ccccc1)[C@H]2OC(=O)c1ccccc1)[C@H]3OC(C)=O | 21.2 | 2.1 | 131 | – |
| NC1(C(=O)O)CC2CCC1C2 (stereo not given) | – | – | – | inhibition [5]: 40.2% |
| CC(=O)O[C@H]1CC[C@@H](C)[C@]23OC(C)(C)[C@H](C[C@H](OC(=O)c4ccccc4)[C@]12C)[C@H]3OC(C)=O | > 30 | – | – | – |
| CC(=O)OC[C@@]12[C@@H](OC(C)=O)CC[C@@H](C)[C@]13OC(C)(C)[C@H]([C@@H](OC(=O)c1ccc(Br)cc1)[C@H]2OC(=O)c1ccccc1)[C@H]3OC(C)=O | > 30 | – | – | – |
| CC(=O)OC[C@@]12[C@@H](OC(C)=O)CC[C@@H](C)[C@]13OC(C)(C)[C@H](C(=O)[C@H]2OC(=O)c1ccccc1)[C@H]3OC(C)=O | > 30 | 1.9 | 50.6 | IC50 [3]: 151 µM |
